This note sets out measurements from PubChem BioAssay AID1259407 (Chemical Carcinogenesis Research Information System (CCRIS), 2018).

Active and inactive are the calls of the source. How the calls were made is not given here.

The data set has as its system CCRIS mutagenicity, Ames/micronucleus/aberration tests. The data set can be described thus: CCRIS mutagenicity studies.
Where [1] appears, read: Test System: AMES SALMONELLA TYPHIMURIUM, Strain/Indicator: TA98, Metabolic Activation: NONE, Method: STANDARD PLATE.
[2] abbreviates: Test System: AMES SALMONELLA TYPHIMURIUM, Strain/Indicator: TA98, Metabolic Activation: S-9, Method: STANDARD PLATE.
Where [3] appears, read: Test System: AMES SALMONELLA TYPHIMURIUM, Strain/Indicator: TA100, Metabolic Activation: NONE, Method: STANDARD PLATE.
Where [4] appears, read: Test System: AMES SALMONELLA TYPHIMURIUM, Strain/Indicator: TA100, Metabolic Activation: S-9, Method: STANDARD PLATE.
Where [5] appears, read: Test System: AMES SALMONELLA TYPHIMURIUM, Strain/Indicator: TA1535, Metabolic Activation: NONE, Method: STANDARD PLATE.
[6] abbreviates: Test System: AMES SALMONELLA TYPHIMURIUM, Strain/Indicator: TA1535, Metabolic Activation: S-9, Method: STANDARD PLATE.
The mark [7] stands for this setting: Test System: AMES SALMONELLA TYPHIMURIUM, Strain/Indicator: TA1537, Metabolic Activation: NONE, Method: STANDARD PLATE.

`CNC(=O)CSP(=S)(OC)OC`: the mutagenic call (End Point: In vitro chromosomal aberrations, Test System: Human lymphocytes, Metabolic Activation: None) is “active; positive (structural changes and ploidy)”; the mutagenic call (Test System: AMES SALMONELLA TYPHIMURIUM, Strain/Indicator: G46, Metabolic Activation: HOST-MEDIATED, Method: STANDARD PLATE) is “active; positive”; the mutagenic call (Test System: AMES SALMONELLA TYPHIMURIUM, Strain/Indicator: TA97A, Metabolic Activation: NONE, Method: STANDARD PLATE) was “inactive; negative”; the mutagenic call (Test System: AMES SALMONELLA TYPHIMURIUM, Strain/Indicator: TA97A, Metabolic Activation: PLANT, HOMOGENATE, S-14, Method: STANDARD PLATE) was “inactive; negative”; the mutagenic call (Test System: AMES SALMONELLA TYPHIMURIUM, Strain/Indicator: TA97A, Metabolic Activation: S-9, Method: STANDARD PLATE) is “inactive; negative”; the mutagenic call under setting [1] was “inactive; negative”. Moreover, the mutagenic call runs as follows: (Test System: AMES SALMONELLA TYPHIMURIUM, Strain/Indicator: TA98, Metabolic Activation: PLANT, HOMOGENATE, S-14, Method: STANDARD PLATE) “inactive; negative”; (Test System: AMES SALMONELLA TYPHIMURIUM, Strain/Indicator: TA98, Metabolic Activation: RAT, LIVER, S-9, Method: STANDARD PLATE) “inactive; negative”; (Test System: AMES SALMONELLA TYPHIMURIUM, Strain/Indicator: TA98, Metabolic Activation: S-9, NADPH GENERATING SYSTEM, Method: STANDARD PLATE) “inactive; negative”; under setting [2], “inactive; negative”; (Test System: AMES SALMONELLA TYPHIMURIUM, Strain/Indicator: TA98, Metabolic Activation: WHEAT SEEDLING, S-14, Method: STANDARD PLATE) “inactive; negative”; (Test System: AMES SALMONELLA TYPHIMURIUM, Strain/Indicator: TA100, Metabolic Activation: NONE, Method: PREINCUBATION) “active; positive”. Further, the mutagenic call is “inactive; negative” under setting [3]; “inactive; negative” (Test System: AMES SALMONELLA TYPHIMURIUM, Strain/Indicator: TA100, Metabolic Activation: PLANT, HOMOGENATE, S-14, Method: STANDARD PLATE); “inactive; negative” under setting [4]; “active; positive” (Test System: AMES SALMONELLA TYPHIMURIUM, Strain/Indicator: TA100, Metabolic Activation: S-9 MIX, Method: STANDARD PLATE); “inactive; negative” (Test System: AMES SALMONELLA TYPHIMURIUM, Strain/Indicator: TA102, Metabolic Activation: NONE, Method: STANDARD PLATE); “inactive; negative” (Test System: AMES SALMONELLA TYPHIMURIUM, Strain/Indicator: TA102, Metabolic Activation: RAT, LIVER, S-9, Method: STANDARD PLATE). In addition, the mutagenic call is “inactive; negative” (Test System: AMES SALMONELLA TYPHIMURIUM, Strain/Indicator: TA102, Metabolic Activation: S-9, NADPH GENERATING SYSTEM, Method: STANDARD PLATE); “inactive; negative” (Test System: AMES SALMONELLA TYPHIMURIUM, Strain/Indicator: TA102, Metabolic Activation: WHEAT SEEDLING, S-14, Method: STANDARD PLATE); “inactive; negative” under setting [5]; “inactive; negative” (Test System: AMES SALMONELLA TYPHIMURIUM, Strain/Indicator: TA1535, Metabolic Activation: PLANT, HOMOGENATE, S-14, Method: STANDARD PLATE); “inactive; negative” (Test System: AMES SALMONELLA TYPHIMURIUM, Strain/Indicator: TA1535, Metabolic Activation: RAT, LIVER, S-9, Method: STANDARD PLATE); “inactive; negative” (Test System: AMES SALMONELLA TYPHIMURIUM, Strain/Indicator: TA1535, Metabolic Activation: S-9, NADPH GENERATING SYSTEM, Method: STANDARD PLATE). The mutagenic call was “inactive; negative” under setting [6]; “inactive; negative” (Test System: AMES SALMONELLA TYPHIMURIUM, Strain/Indicator: TA1535, Metabolic Activation: WHEAT SEEDLING, S-14, Method: STANDARD PLATE); “inactive; negative” under setting [7]; “inactive; negative” (Test System: AMES SALMONELLA TYPHIMURIUM, Strain/Indicator: TA1537, Metabolic Activation: S-9, NADPH GENERATING SYSTEM, Method: STANDARD PLATE).

As to `CC1(C)[C@H](C(=O)OCc2cccc(Oc3ccccc3)c2)[C@@H]1C=C(Cl)Cl`, the mutagenic call reads like this: (Test System: AMES SALMONELLA TYPHIMURIUM, Strain/Indicator: TA97, Metabolic Activation: NONE, Method: STANDARD PLATE) “inactive; negative”; (Test System: AMES SALMONELLA TYPHIMURIUM, Strain/Indicator: TA97, Metabolic Activation: RAT, LIVER, S-9, PHENOBARBITONE, Method: STANDARD PLATE) “inactive; negative”; under setting [1], “inactive; negative”; (Test System: AMES SALMONELLA TYPHIMURIUM, Strain/Indicator: TA98, Metabolic Activation: RAT, LIVER, S-9, PHENOBARBITONE, Method: STANDARD PLATE) “inactive; negative”; under setting [3], “inactive; negative”; (Test System: AMES SALMONELLA TYPHIMURIUM, Strain/Indicator: TA100, Metabolic Activation: RAT, LIVER, S-9, PHENOBARBITONE, Method: STANDARD PLATE) “inactive; negative”. For the same molecule, the mutagenic call is “inactive; negative” (Test System: AMES SALMONELLA TYPHIMURIUM, Strain/Indicator: TA104, Metabolic Activation: NONE, Method: STANDARD PLATE) and “inactive; negative” (Test System: AMES SALMONELLA TYPHIMURIUM, Strain/Indicator: TA104, Metabolic Activation: RAT, LIVER, S-9, PHENOBARBITONE, Method: STANDARD PLATE).

With `Cn1c2c3ccccc3nc-2cc2ccccc21`, the mutagenic call runs as follows: (End Point: IN VITRO MICRONUCLEUS, Test System: CHINESE HAMSTER V-79-MZ, Metabolic Activation: NONE) “active; positive”; (Test System: CHINESE HAMSTER V-79-MZ, Strain/Indicator: V-79 MZ (HPRT)/6-THIOGUANINE, Metabolic Activation: NONE) “inactive; negative”.

As to `Oc1cc2c3c(cc4cccc5ccc1c3c54)-c1ccccc1-2`, the mutagenic call (Test System: AMES SALMONELLA TYPHIMURIUM, Strain/Indicator: TA100, Metabolic Activation: RAT, LIVER, S-9, AROCLOR 1254, Method: STANDARD PLATE) was “inactive; negative”.

Take `OC(Nc1snc2ccccc12)C(Cl)(Cl)Cl` (configuration not stated): the mutagenic call runs as follows: under setting [1], “inactive; negative”; under setting [2], “inactive; negative”; under setting [3], “inactive; negative”; under setting [4], “inactive; negative”; under setting [5], “inactive; negative”; under setting [6], “inactive; negative”. Further, the mutagenic call is “inactive; negative” under setting [7] and “inactive; negative” (Test System: AMES SALMONELLA TYPHIMURIUM, Strain/Indicator: TA1537, Metabolic Activation: S-9, Method: STANDARD PLATE).
